From patent US20240415804A1, “METHOD OF TREATING PANCREATIC CANCER” (University of South Florida, priority 2022, published 2024) come the findings set out here.

The test concerns miR-155. The experiment in a line: miR-155 gene expression in tumors of KC-HPC mice. It is filed as in vivo, mouse. Conditions: API 25 mg/kg IP three times per week for 17 days, vs vehicle. Here is the method:
To build on these findings, the inventors then used a novel pancreatic cancer cell line, UN-KC-6141, that resembles human PC due to its expression of a mutated Kras and generated mice harboring these tumor cells, called KC-HPC mice. Such mice were treated with API at a dose of 25 mg/kg (IP) three times per week for 17 days. The inventors examined if API also targets miR-155 and regulates SHIP-1 in the tumors from KC-HPC mouse model. […] The HPC models were euthanized 21-28 days post-injection, while the KC-HPC models were euthanized 16-17 days post-injection. miRNA extraction of PC cells (treated with miR-155 inhibitor and/or API), BM and digested pancreatic tumors cells was performed using a mirVana miRNA Isolation Kit (Applied Biosystems, Waltham, MA, USA) as per the manufacturer's instructions. miRNA was reverse transcribed into cDNA using TaqMan miRNA reverse transcription kit (Applied Biosystems) with gene-specific stem-loop RT primers according to the manufacturer's instructions. cDNA was then loaded onto either mmu-miR-155 or ipu-miR-155 TaqMan miRNA assays (Assay IDs: 002571 and 467534_mat) using TaqMan Fast Universal PCR Master mix (Applied Biosystems) and miR-155 detected with an Eppendorf Master cycler real plex 4. […]

Take `O=c1cc(-c2ccc(O)cc2)oc2cc(O)cc(O)c12` [API, 40,5,7-Trihydroxyflavone, 5,7-Dihydroxy-2-(4-hydroxyphenyl)-4-benzopyrone]: the “miR-155 gene expression in tumor” value was “significantly reduced”.
